Measured values: PMC8154557 (Journal of Medicinal Chemistry, 2021)

How the values were obtained:
Stx1B = Stx1B (Shigella dysenteriae, UniProt Q7BQ98); test: biochemical; format: binding, Escherichia coli
T84 cells [1] = test: TEER measurement of epithelial integrity; conditions: 10%, positive control, 24 h
T84 cells [2] = test: Viability MTT assay; conditions: 10%, positive control, 24 h

Sequence of Stx1B (Q7BQ98 21-89 limits assumed): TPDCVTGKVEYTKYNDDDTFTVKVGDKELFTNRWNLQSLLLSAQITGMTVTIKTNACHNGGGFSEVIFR

SMILES	rel. pot. per sugar (Stx1B)	rel.pot. (Stx1B)	further results
O=C(O)c1cc(OCc2cn([C@@H]3O[C@H](CO)[C@H](O[C@H]4O[C@H](CO)[C@H](O)[C@H](O)[C@H]4O)[C@H](O)[C@H]3O)nn2)cc(OCc2cn([C@@H]3O[C@H](CO)[C@H](O[C@H]4O[C@H](CO)[C@H](O)[C@H](O)[C@H]4O)[C@H](O)[C@H]3O)nn2)c1 [Compound 3]	2.3	4.6	IC50 (Stx1B; IC50): 1000 µM
O=C(NCCOc1cc(OCCNC(=O)OCc2cn([C@@H]3O[C@H](CO)[C@H](O[C@H]4O[C@H](CO)[C@H](O)[C@H](O)[C@H]4O)[C@H](O)[C@H]3O)nn2)cc(C(=O)O)c1)OCc1cn([C@@H]2O[C@H](CO)[C@H](O[C@H]3O[C@H](CO)[C@H](O)[C@H](O)[C@H]3O)[C@H](O)[C@H]2O)nn1 [Compound 4]	2	4	
CCO [ethanol]			transepithelial electrical resistance (TEER) values (T84 cells [1]): strongly decreased; T84 cell viability (MTT) (T84 cells [2]): significantly reduced
O=C(O)c1cc(OCCNC(=O)c2cc(OCc3cn([C@@H]4O[C@H](CO)[C@H](O[C@H]5O[C@H](CO)[C@H](O)[C@H](O)[C@H]5O)[C@H](O)[C@H]4O)nn3)cc(OCc3cn([C@@H]4O[C@H](CO)[C@H](O[C@H]5O[C@H](CO)[C@H](O)[C@H](O)[C@H]5O)[C@H](O)[C@H]4O)nn3)c2)cc(OCCNC(=O)c2cc(OCc3cn([C@@H]4O[C@H](CO)[C@H](O[C@H]5O[C@H](CO)[C@H](O)[C@H](O)[C@H]5O)[C@H](O)[C@H]4O)nn3)cc(OCc3cn([C@@H]4O[C@H](CO)[C@H](O[C@H]5O[C@H](CO)[C@H](O)[C@H](O)[C@H]5O)[C@H](O)[C@H]4O)nn3)c2)c1 [Compound 5]	62.5	250	
[N-]=[N+]=N[C@@H]1O[C@H](CO)[C@H](O[C@H]2O[C@H](CO)[C@H](O)[C@H](O)[C@H]2O)[C@H](O)[C@H]1O [Compound 1e]	1		
OC[C@H]1O[C@@H](O[C@H]2[C@H](O)[C@@H](O)C(O)O[C@@H]2CO)[C@H](O)[C@@H](O)[C@H]1O (mixture of isomers) [Lactose, reference compound]			inhibition of the toxin (in words) (Stx1B): did not show any activity
O=C(NCCCCCCCCCCCCNC(=O)c1cc(OCc2cn([C@@H]3O[C@H](CO)[C@H](O[C@H]4O[C@H](CO)[C@H](O)[C@H](O)[C@H]4O)[C@H](O)[C@H]3O)nn2)cc(OCc2cn([C@@H]3O[C@H](CO)[C@H](O[C@H]4O[C@H](CO)[C@H](O)[C@H](O)[C@H]4O)[C@H](O)[C@H]3O)nn2)c1)c1cc(OCc2cn([C@@H]3O[C@H](CO)[C@H](O[C@H]4O[C@H](CO)[C@H](O)[C@H](O)[C@H]4O)[C@H](O)[C@H]3O)nn2)cc(OCc2cn([C@@H]3O[C@H](CO)[C@H](O[C@H]4O[C@H](CO)[C@H](O)[C@H](O)[C@H]4O)[C@H](O)[C@H]3O)nn2)c1 [Compound 6]	92	367	
